In article doi:10.1101/2025.08.29.673196v2, “Development and characterization of Novel Small Molecule Inhibitors Targeting LAG-3 Protein” (biorxiv, 2025):

Biological target: T1, LAG-3 (biotinylated LAG-3 of HTRF LAG-3/MHCII binding assay) (Homo sapiens, UniProt P18627)
T1 construct: gene LAG3; biotinylated LAG-3 reagent of Revvity HTRF LAG-3/MHCII kit
T1 sequence (P18627 23-450 limits assumed): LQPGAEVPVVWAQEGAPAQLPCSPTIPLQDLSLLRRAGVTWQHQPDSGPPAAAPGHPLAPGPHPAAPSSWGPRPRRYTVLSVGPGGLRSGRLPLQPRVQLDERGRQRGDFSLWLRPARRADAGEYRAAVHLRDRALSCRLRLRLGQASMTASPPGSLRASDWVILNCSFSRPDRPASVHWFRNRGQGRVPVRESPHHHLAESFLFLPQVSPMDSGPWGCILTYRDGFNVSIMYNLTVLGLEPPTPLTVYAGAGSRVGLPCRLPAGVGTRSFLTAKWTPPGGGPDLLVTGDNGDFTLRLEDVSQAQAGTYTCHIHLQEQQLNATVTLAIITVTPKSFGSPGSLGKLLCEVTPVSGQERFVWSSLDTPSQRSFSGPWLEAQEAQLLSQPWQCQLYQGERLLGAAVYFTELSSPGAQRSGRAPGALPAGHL
Test: HTRF LAG-3/MHCII binding inhibition

| IC50 [nM] | SMILES |
| --- | --- |
| 371 | COc1ccc(OC)c(NC(=O)C(=O)Nc2ccc(Oc3ccc(C(=O)O)cc3)c(C(=O)Nc3ccc4c(C)cc(=O)oc4c3)c2)c1 [LG-164] |
| 467 | Cc1cc(=O)oc2cc(NC(=O)c3cc(NS(=O)(=O)N4CCC(c5ccccc5)CC4)ccc3Oc3ccc(C(=O)O)cc3)ccc12 [LG-193] |
| 602 | Cc1cc(=O)oc2cc(NC(=O)c3cc(NC(=O)c4cccc(C5(C(F)(F)F)CCC5)c4)ccc3Oc3ccc(C(=O)O)cc3)ccc12 [LG-131] |
| 21000 | Cc1cc(=O)oc2cc(NC(=O)c3cc(NC(=O)c4ccccc4)ccc3Oc3ccc(C(=O)O)cc3)ccc12 [LG-125] |
